ChEMBL document CHEMBL1201862, “PubChem BioAssay data set” (2004)
Several values for one entry are separate records, joined by “and”; a condition that tells them apart may be missing. Equal entries are not always repeated.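 Protocol summary: plate cells (96-well), add compound at 5 concentrations, incubate 48 h, interpolate endpoints linearly. The concentration for 50% growth inhibition is given as GI50.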 Activity calls are given as the source filed them. No stated cut-off is given here; in the data, active = GI50 up to about 1.1 µM and inactive = higher.

Assays:
Test in all cases: NCI anticancer screen, dose series, 48 h
NCI/ADR-RES = test system: NCI/ADR-RES
T47D = test system: T47D
SK-MEL-5 = test system: SK-MEL-5
SF-268 = test system: SF-268
PC-3 = test system: PC-3
NCI-H23 = test system: NCI-H23
A549 = test system: A549
SNB-75 = test system: SNB-75
M14 = test system: M14
SK-MEL-28 = test system: SK-MEL-28
UACC-62 = test system: UACC-62
MDA-MB-231 = test system: MDA-MB-231
CCRF-CEM = test system: CCRF-CEM
CAKI-1 = test system: CAKI-1
DU-145 = test system: DU-145
KM12 = test system: KM12
SNB-19 = test system: SNB-19
HCC 2998 = test system: HCC 2998
SN12C = test system: SN12C
Hs-578T = test system: Hs-578T
BT-549 = test system: BT-549
786-0 = test system: 786-0
OVCAR-4 = test system: OVCAR-4
OVCAR-8 = test system: OVCAR-8
HCT-15 = test system: HCT-15
MOLT-4 = test system: MOLT-4
HOP-92 = test system: HOP-92
IGROV-1 = test system: IGROV-1
TK-10 = test system: TK-10
HT-29 = test system: HT-29
SW-620 = test system: SW-620
SF-295 = test system: SF-295
A498 = test system: A498
NCI-H226 = test system: NCI-H226
K562 = test system: K562
SK-OV-3 = test system: SK-OV-3
RPMI-8226 = test system: RPMI-8226
LOX IMVI = test system: LOX IMVI
SR = test system: SR
NCI-H522 = test system: NCI-H522
OVCAR-5 = test system: OVCAR-5
UO-31 = test system: UO-31
RXF 393 = test system: RXF 393
HOP-62 = test system: HOP-62
Malme-3M = test system: Malme-3M
HCT-116 = test system: HCT-116
OVCAR-3 = test system: OVCAR-3
MDA-MB-435 = test system: MDA-MB-435
COLO 205 = test system: COLO 205
NCI-H460 = test system: NCI-H460
SK-MEL-2 = test system: SK-MEL-2
UACC-257 = test system: UACC-257
MDA-N = test system: MDA-N
U-251 = test system: U-251
ACHN = test system: ACHN
EKVX = test system: EKVX

COC(=O)C1(O)C(c2ccccc2)=NC2(C)CCCC21 (centres undefined)
GI50 (NCI/ADR-RES): > 100 µM (inactive)
GI50 (T47D): > 100 µM (inactive)
GI50 (SK-MEL-5): > 100 µM (inactive)
GI50 (SF-268): > 100 µM (inactive)
GI50 (PC-3): > 100 µM (inactive)
GI50 (NCI-H23): > 100 µM (inactive)
GI50 (A549): > 100 µM (inactive)
GI50 (SNB-75): > 100 µM (inactive)
GI50 (M14): > 100 µM (inactive)
GI50 (SK-MEL-28): > 100 µM (inactive)
GI50 (UACC-62): > 100 µM (inactive)
GI50 (MDA-MB-231): > 100 µM (inactive)
GI50 (CCRF-CEM): > 100 µM (inactive)
GI50 (CAKI-1): > 100 µM (inactive)
GI50 (DU-145): > 100 µM (inactive)
GI50 (KM12): > 100 µM (inactive)
GI50 (SNB-19): > 100 µM (inactive)
GI50 (HCC 2998): > 100 µM (inactive)
GI50 (SN12C): > 100 µM (inactive)
GI50 (Hs-578T): > 100 µM (inactive)
GI50 (BT-549): > 100 µM (inactive)
GI50 (786-0): > 100 µM (inactive)
GI50 (OVCAR-4): > 100 µM (inactive)
GI50 (OVCAR-8): > 100 µM (inactive)
GI50 (HCT-15): > 100 µM
GI50 (MOLT-4): > 100 µM (inactive)
GI50 (HOP-92): > 100 µM (inactive)
GI50 (IGROV-1): > 100 µM (inactive)
GI50 (TK-10): > 100 µM (inactive)
GI50 (HT-29): > 100 µM (inactive)
GI50 (SW-620): > 100 µM (inactive)
GI50 (SF-295): > 100 µM (inactive)
GI50 (A498): > 100 µM (inactive)
GI50 (NCI-H226): > 100 µM (inactive)
GI50 (K562): > 100 µM (inactive)
GI50 (SK-OV-3): > 100 µM (inactive)
GI50 (RPMI-8226): > 100 µM (inactive)
GI50 (LOX IMVI): > 100 µM (inactive)
GI50 (SR): > 100 µM (inactive)
GI50 (NCI-H522): > 100 µM (inactive)
GI50 (OVCAR-5): > 100 µM (inactive)
GI50 (UO-31): > 100 µM (inactive)
GI50 (RXF 393): > 100 µM (inactive)
GI50 (HOP-62): > 100 µM (inactive)
GI50 (Malme-3M): > 100 µM (inactive)
GI50 (HCT-116): > 100 µM (inactive)
GI50 (OVCAR-3): > 100 µM (inactive)
GI50 (MDA-MB-435): > 100 µM (inactive)
GI50 (COLO 205): > 100 µM (inactive)
GI50 (NCI-H460): > 100 µM (inactive)
GI50 (SK-MEL-2): > 100 µM (inactive)
GI50 (UACC-257): > 100 µM (inactive)
GI50 (MDA-N): > 100 µM (inactive)
GI50 (U-251): > 100 µM (inactive)

Cc1nc2c(Br)cc(Br)cc2c(=O)n1-c1ccccc1NC1OCC(O)C(O)C1O (centres undefined)
GI50 (T47D): 44 µM (inactive) and 30.5 µM (inactive)
GI50 (PC-3): 33.3 µM (inactive) and 46 µM (inactive)
GI50 (NCI-H23): 20.7 µM (inactive) and 38 µM (inactive)
GI50 (SNB-75): 18.8 µM (inactive) and 33 µM (inactive)
GI50 (M14): 21.8 µM (inactive) and 32.7 µM (inactive)
GI50 (SK-MEL-28): 69.2 µM (inactive) and 74.3 µM (inactive)
GI50 (ACHN): 17.2 µM (inactive) and 32.3 µM (inactive)
GI50 (MDA-MB-231): 27.2 µM (inactive) and 45.7 µM (inactive)
GI50 (CCRF-CEM): 21.5 µM (inactive) and 11.5 µM (inactive)
GI50 (CAKI-1): 45.2 µM (inactive) and 28.4 µM (inactive)
GI50 (KM12): 24.7 µM (inactive)
GI50 (SNB-19): 40.8 µM (inactive) and 22.9 µM (inactive)
GI50 (HCC 2998): 33.7 µM (inactive)
GI50 (Hs-578T): > 25.5 µM (inactive) and 39.7 µM (inactive)
GI50 (BT-549): 26.5 µM (inactive) and 29.3 µM (inactive)
GI50 (OVCAR-4): 24.1 µM (inactive) and 39.1 µM (inactive)
GI50 (HCT-15): 48.8 µM and 41.1 µM
GI50 (HOP-92): 19.6 µM (inactive) and 35.8 µM (inactive)
GI50 (EKVX): 48.6 µM (inactive) and 39 µM (inactive)
GI50 (IGROV-1): 41.4 µM (inactive) and 21.2 µM (inactive)
GI50 (TK-10): 23.4 µM (inactive) and 40.9 µM (inactive)
GI50 (HT-29): 24.9 µM (inactive) and 15.3 µM (inactive)
GI50 (SW-620): 28.6 µM (inactive)
GI50 (LOX IMVI): 14.6 µM (inactive) and 21.6 µM (inactive)
GI50 (NCI-H522): 19.7 µM (inactive) and 17.4 µM (inactive)
GI50 (OVCAR-5): 44.2 µM (inactive) and 42.7 µM (inactive)
GI50 (UO-31): 42.2 µM (inactive) and 30.5 µM (inactive)
GI50 (Malme-3M): 28.3 µM (inactive) and 37.8 µM (inactive)
GI50 (HCT-116): 24.7 µM (inactive) and 16 µM (inactive)
GI50 (OVCAR-3): 24.3 µM (inactive) and 20.9 µM (inactive)
GI50 (MDA-MB-435): 42.1 µM (inactive) and 39.4 µM (inactive)
GI50 (COLO 205): 18.6 µM (inactive) and 17.6 µM (inactive)
GI50 (SK-MEL-2): 38.8 µM (inactive) and 34.3 µM (inactive)
GI50 (UACC-257): 23.7 µM (inactive) and 44.8 µM (inactive)
GI50 (MDA-N): 33.7 µM (inactive) and 41.4 µM (inactive)
